Test results from patent US9474734B2, “Compounds for treating inflammation and pain” (Olatec Industries LLC, priority 2012, dated 2016).

System: arachidonic acid-induced ear swelling
Test: topical arachidonic acid-induced ear swelling model in mice
Type: in vivo
Details: male ICR mice; topical application 30 min before and 15 min after arachidonic acid; measured at 90 minutes; indomethacin 14 mM (0.1 mg/20 μL), 3-(methylthio)propionitrile 375 mM (1.0 mg/20 μL)
Protocol: The test compounds, indomethacin (positive control), and vehicle were evaluated for anti-inflammatory activity in a topical arachidonic acid-induced ear swelling model in mice. Male ICR mice weighing 22±2 g were used and randomly divided; each group had 10 mice. Arachidonic Acid (0.5 mg in 20 μl of acetone:ethanol/1:1) was applied topically to the anterior and posterior surfaces of the right ear of each mice. Test substances and vehicle, as listed in Table 1 were similarly applied 30 min before and 15 min after arachidonic acid application. The thickness of the right ear and the left ear was measured and the difference calculated as an indication of the inflammation in the right ear. Ear swelling was measured by a Dyer model micrometer gauge at 60 and 90 minutes after arachidonic acid application as an index of inflammation. Percent inhibition was calculated according to the formula: Ic−It/Ic×100, where Ic and It refers to increase of ear thickness (mm) in control and treated mice, respectively. ANOVA and Dunnett's test were employed to ascertain significant difference between vehicle control and treated groups. Significance is set at P<0.05 level.

| SMILES | % Inhibition of ear swelling |
| --- | --- |
| CSCCC#N [3-(methylthio)propionitrile] | 43% |
| COc1ccc2c(c1)c(CC(=O)O)c(C)n2C(=O)c1ccc(Cl)cc1 [Indomethacin] | 53% |
